The values below come from the Biogen ADME set (Fang et al. 2023).

Values after ≈ are worked out from the molar mass of the structure shown.

The conditions of the data set: for aqueous solubility: pH 6.8.

With `O=C(c1ccc(Oc2ccccc2)cc1Cl)c1c[nH]c2ncnc(N[C@@H]3CC[C@@H](CO)OC3)c12`, the MDR1-MDCK efflux ratio amounted to 6.8; the fraction unbound, human plasma is 0.00341; the fraction unbound, rat plasma is 0.00506; the intrinsic clearance, human liver microsomes is at most 4.74 mL/min/kg. Also, the intrinsic clearance, rat liver microsomes was at most 10.7 mL/min/kg.
One may read the aqueous solubility as the dissolved amount per volume that the medium holds. A lower aqueous solubility goes with a poorly soluble substance. Regarding `Clc1ccc(-c2ccc(CNCC3CCCO3)o2)c(Cl)c1` (centres undefined), the MDR1-MDCK efflux ratio came to 0.624; the intrinsic clearance, human liver microsomes came to 55.4 mL/min/kg; the intrinsic clearance, rat liver microsomes amounted to 1050 mL/min/kg; the aqueous solubility was 30.4 µg/mL (≈ 93.3 µM).
In turn, `CC(C)(C)C(=O)Nc1sc2c(c1C#N)CCC2` showed an aqueous solubility of 1.91 µg/mL (≈ 7.69 µM).
The compound `Cc1cc(C)cc(NC(=O)COC(=O)c2nn(C)c(=O)c3ccccc23)c1` yielded an aqueous solubility of 0.97 µg/mL (≈ 2.65 µM).
In turn, `NC(=O)C1(CCCc2ccccn2)CCNCC1` returned an intrinsic clearance, human liver microsomes of at most 4.74 mL/min/kg; an intrinsic clearance, rat liver microsomes of 84.3 mL/min/kg; an aqueous solubility of 38.7 µg/mL (≈ 156 µM).
For the compound `Cc1cncc(CN2CCC(=C3c4ccc(Cl)cc4CCc4cccnc43)CC2)c1`, the MDR1-MDCK efflux ratio turned out to be 1.45; the intrinsic clearance, human liver microsomes stood at 511 mL/min/kg; the intrinsic clearance, rat liver microsomes worked out at 1010 mL/min/kg.
Compound `CC(C)(C)Cc1nnc(-c2cnc3onc(C4CCCC4)c3c2)o1` yielded an aqueous solubility of 3.99 µg/mL (≈ 12.2 µM).
As for `CN(Cc1ccc(CO)cc1)Cc1cc(F)c(F)c(F)c1`, the MDR1-MDCK efflux ratio amounted to 0.425; the intrinsic clearance, human liver microsomes amounted to 54 mL/min/kg; the intrinsic clearance, rat liver microsomes was determined as 371 mL/min/kg.
In the case of `COc1cc2nc(/C=C/c3cocn3)sc2cc1OC`, the MDR1-MDCK efflux ratio worked out at 0.504; the intrinsic clearance, human liver microsomes came out at 11.4 mL/min/kg; the intrinsic clearance, rat liver microsomes was determined as 74.5 mL/min/kg; the aqueous solubility stood at 12.4 µg/mL (≈ 42.9 µM).
In the case of `O=C(CN1CCCN(c2ccc(C(F)(F)F)cn2)CC1)Nc1ccccc1F`, the MDR1-MDCK efflux ratio is 0.671; the intrinsic clearance, human liver microsomes is 148 mL/min/kg; the intrinsic clearance, rat liver microsomes is 1100 mL/min/kg; the aqueous solubility came to 19.4 µg/mL (≈ 49.1 µM).
Consider `CCc1nc(COc2ccccc2Br)no1`, for which the aqueous solubility was found to be 21.9 µg/mL (≈ 77.5 µM).
Turning to `COc1ccc(-c2nnc3ccc(C(F)(F)F)cn23)cc1OC(C)C`, the MDR1-MDCK efflux ratio is 1.11; the intrinsic clearance, human liver microsomes amounted to 31.2 mL/min/kg; the intrinsic clearance, rat liver microsomes is 132 mL/min/kg; the aqueous solubility turned out to be 22.9 µg/mL (≈ 65.2 µM).
`Cc1nc(C(=O)NCC(=O)O)c(O)c2ccc(Oc3ccccc3)cc12`: the MDR1-MDCK efflux ratio amounted to 1.23; the intrinsic clearance, human liver microsomes was at most 4.74 mL/min/kg; the intrinsic clearance, rat liver microsomes was at most 10.7 mL/min/kg.
On to `COc1cc(CNC(=O)NC2CCCCC2)cc(OC)c1O`, for which the MDR1-MDCK efflux ratio stood at 4.18; the intrinsic clearance, human liver microsomes is at most 4.74 mL/min/kg; the intrinsic clearance, rat liver microsomes was at most 10.7 mL/min/kg; the aqueous solubility worked out at 78 µg/mL (≈ 253 µM).
As for `O=C(Nc1nc(-c2ccccn2)cs1)c1ccc(F)cc1Cl`, the MDR1-MDCK efflux ratio stood at 0.149; the intrinsic clearance, human liver microsomes was 82.2 mL/min/kg; the intrinsic clearance, rat liver microsomes was determined as 127 mL/min/kg; the aqueous solubility worked out at 5.16 µg/mL (≈ 15.5 µM).
Regarding `Cc1ccc(S(=O)(=O)N2CCOc3ccncc32)cc1`, the MDR1-MDCK efflux ratio was found to be 0.71; the intrinsic clearance, human liver microsomes stood at 107 mL/min/kg; the intrinsic clearance, rat liver microsomes turned out to be 2090 mL/min/kg.
For the compound `CC(C)c1nnc(CNC(=O)C2(C)CCC2)n1C`, the MDR1-MDCK efflux ratio is 45.4; the intrinsic clearance, human liver microsomes was at most 4.74 mL/min/kg; the intrinsic clearance, rat liver microsomes was at most 10.7 mL/min/kg; the aqueous solubility turned out to be 51.8 µg/mL (≈ 207 µM).
With `CC1(COc2ccc3c(c2)ncn3-c2ccc3cccc(OS(=O)(=O)C(F)(F)F)c3n2)COC1`, the aqueous solubility was 0.4 µg/mL (≈ 0.811 µM).
Consider `N#Cc1c(N)nc(SCC(N)=O)c(C#N)c1-c1ccc(OCC2CC2)cc1`, for which the MDR1-MDCK efflux ratio was 42.5 and the aqueous solubility is 0.52 µg/mL (≈ 1.37 µM).
With `CCCn1ccnc1CNc1nc2c(s1)c(C)nn2C`, the MDR1-MDCK efflux ratio worked out at 8.95; the intrinsic clearance, human liver microsomes is 6.75 mL/min/kg; the intrinsic clearance, rat liver microsomes was 129 mL/min/kg; the aqueous solubility was found to be 31 µg/mL (≈ 107 µM).
In turn, `Cn1c(=O)oc2cc(NC(C3CC3)C3CC3)ccc21` displayed an intrinsic clearance, human liver microsomes of 13.6 mL/min/kg and an intrinsic clearance, rat liver microsomes of 186 mL/min/kg.
Consider `CCc1ccc(CNc2nncs2)o1`, for which the MDR1-MDCK efflux ratio came to 0.666; the intrinsic clearance, human liver microsomes came out at 7.77 mL/min/kg; the intrinsic clearance, rat liver microsomes is 46.9 mL/min/kg.
On to `CN(C)C(=O)COc1ccc(N)c(F)c1`, for which the MDR1-MDCK efflux ratio came out at 0.766; the intrinsic clearance, human liver microsomes is at most 4.74 mL/min/kg; the intrinsic clearance, rat liver microsomes was at most 10.7 mL/min/kg; the aqueous solubility was 43.8 µg/mL (≈ 206 µM).
`CSc1ccccc1NC(=O)CN1CCCC(c2nc3ccccc3o2)C1` (centres undefined) returned an intrinsic clearance, human liver microsomes of 1120 mL/min/kg; an intrinsic clearance, rat liver microsomes of 4670 mL/min/kg; an aqueous solubility of 8.5 µg/mL (≈ 22.3 µM).
Compound `CC(C)c1cc(C(=O)Nc2ncccc2Cl)no1` registered an intrinsic clearance, human liver microsomes of 88.3 mL/min/kg and an intrinsic clearance, rat liver microsomes of 65.1 mL/min/kg.
As for `CONC(=O)c1c2c(nc3ccccc13)CCC2`, the intrinsic clearance, human liver microsomes was at most 4.74 mL/min/kg and the intrinsic clearance, rat liver microsomes is at most 10.7 mL/min/kg.
As for `O=C(Nc1ccccn1)c1ccc2c(c1)C(=O)N(C1CCCCC1)C2=O`, the MDR1-MDCK efflux ratio was found to be 0.393; the intrinsic clearance, human liver microsomes was 11.8 mL/min/kg; the intrinsic clearance, rat liver microsomes came out at 791 mL/min/kg.
In the case of `C#CCN1CCC[C@H]1C(=O)Nc1cnn(-c2ncccn2)c1`, the MDR1-MDCK efflux ratio is 3.95; the intrinsic clearance, human liver microsomes was at most 4.74 mL/min/kg; the intrinsic clearance, rat liver microsomes was found to be 83.4 mL/min/kg; the aqueous solubility stood at 45.1 µg/mL (≈ 152 µM).
Take `O=C(Cn1c(-c2ccc(F)cc2)nc2ccccc21)N1CCOCC1`: the MDR1-MDCK efflux ratio turned out to be 12.8; the intrinsic clearance, human liver microsomes is at most 4.74 mL/min/kg; the intrinsic clearance, rat liver microsomes is at most 10.7 mL/min/kg; the aqueous solubility came to 54.6 µg/mL (≈ 161 µM).
The matching figures for `CS(=O)(=O)Cc1ccn(-c2ccccc2)n1`: 0.661, at most 4.74 mL/min/kg, at most 10.7 mL/min/kg and 32.2 µg/mL (≈ 136 µM).
Regarding `CCC(=O)Nc1ccc(F)c(NC(=O)N2CC=C(C)CC2)c1`, the MDR1-MDCK efflux ratio is 1.35; the intrinsic clearance, human liver microsomes is 9.2 mL/min/kg; the intrinsic clearance, rat liver microsomes is 68.6 mL/min/kg.
Take `CN(C)c1cccc(C(=O)N2CCCC(c3cccc(-c4cccs4)n3)C2)c1` (centres undefined): the MDR1-MDCK efflux ratio is 0.647; the intrinsic clearance, human liver microsomes stood at 499 mL/min/kg; the intrinsic clearance, rat liver microsomes is 3630 mL/min/kg; the aqueous solubility was determined as 2.1 µg/mL (≈ 5.36 µM).
`Cc1cc(C)n(CCNC(=O)NC2CCOCC2)n1`: the MDR1-MDCK efflux ratio came to 28.3; the intrinsic clearance, human liver microsomes was at most 4.74 mL/min/kg; the intrinsic clearance, rat liver microsomes is at most 10.7 mL/min/kg; the aqueous solubility turned out to be 47.5 µg/mL (≈ 178 µM).
As to `O=C(c1ccccc1)N1CCN(C(=O)c2ccc(-c3ccccc3Cl)o2)CC1`, the MDR1-MDCK efflux ratio worked out at 0.683; the intrinsic clearance, human liver microsomes stood at 126 mL/min/kg; the intrinsic clearance, rat liver microsomes is 445 mL/min/kg; the aqueous solubility was 34.9 µg/mL (≈ 88.4 µM).
On to `O=C(Nc1ccccc1-n1ccnc1)c1ccc(F)cc1`, for which the MDR1-MDCK efflux ratio worked out at 0.961; the intrinsic clearance, human liver microsomes is 10.2 mL/min/kg; the intrinsic clearance, rat liver microsomes worked out at 40.3 mL/min/kg; the aqueous solubility amounted to 60.8 µg/mL (≈ 216 µM).
